Legend:
[1] = 298.15 K, 100 kPa, Liquid; for viscosity: Concentric cylinders viscometry; for mass density: Vibrating tube method
[2] = mn = molality of the nth substance listed, in mol/kg; conditions: 298.15 K, 100 kPa, Liquid, dip-type immersion conductivity cell

NC=O [formamide]
[1]
Conditions | mass density [kg/m3] | viscosity [mPa·s]
– | 1129.22 | 3.3

CCCC[N+](CCCC)(CCCC)CCCC.F[B-](F)(F)F [tetrabutylammonium tetrafluoroborate] + NC=O
[2]
Conditions | molar conductivity [S·m2/mol]
m1 = 0.000829 | 0.00215
m1 = 0.001452 | 0.00203
m1 = 0.002025 | 0.00192
m1 = 0.002632 | 0.00183
m1 = 0.003181 | 0.00175
m1 = 0.003782 | 0.00167
m1 = 0.00457 | 0.00158
m1 = 0.005291 | 0.0015
m1 = 0.006131 | 0.00143
m1 = 0.007056 | 0.00134
m1 = 0.007921 | 0.00125
m1 = 0.008482 | 0.00119

C[N+](=O)[O-] [nitromethane]
[1]
Conditions | mass density [kg/m3] | viscosity [mPa·s]
– | 1130.15 | 0.62

CCCC[N+](CCCC)(CCCC)CCCC.[O-][Cl+3]([O-])([O-])[O-] [tetrabutylammonium perchlorate] + CNC=O
[2]
Conditions | molar conductivity [S·m2/mol]
m1 = 0.000795 | 0.00449
m1 = 0.001513 | 0.00423
m1 = 0.002025 | 0.00407
m1 = 0.002735 | 0.00389
m1 = 0.003295 | 0.00371
m1 = 0.003956 | 0.00358
m1 = 0.004802 | 0.00342
m1 = 0.005388 | 0.00333
m1 = 0.006053 | 0.00323
m1 = 0.006823 | 0.00309
m1 = 0.007832 | 0.00293
m1 = 0.008798 | 0.00279

CCCC[N+](CCCC)(CCCC)CCCC.[O-][Cl+3]([O-])([O-])[O-] [tetrabutylammonium perchlorate] + C[N+](=O)[O-]
[2]
Conditions | molar conductivity [S·m2/mol]
m1 = 0.000864 | 0.0101
m1 = 0.001347 | 0.0098
m1 = 0.001806 | 0.00954
m1 = 0.00243 | 0.00927
m1 = 0.002992 | 0.00899
m1 = 0.003528 | 0.00879
m1 = 0.004186 | 0.00854
m1 = 0.004998 | 0.00831
m1 = 0.005715 | 0.00809
m1 = 0.006642 | 0.00777
m1 = 0.007639 | 0.00753
m1 = 0.008668 | 0.00731

CNC=O [N-methylformamide]
[1]
Conditions | mass density [kg/m3] | viscosity [mPa·s]
– | 997.61 | 1.65

CCCC[N+](CCCC)(CCCC)CCCC.[O-][Cl+3]([O-])([O-])[O-] [tetrabutylammonium perchlorate] + NC=O
[2]
Conditions | molar conductivity [S·m2/mol]
m1 = 0.000807 | 0.00312
m1 = 0.001498 | 0.0029
m1 = 0.002061 | 0.00278
m1 = 0.002673 | 0.00264
m1 = 0.003238 | 0.00255
m1 = 0.003856 | 0.00244
m1 = 0.004665 | 0.00231
m1 = 0.005242 | 0.00224
m1 = 0.006209 | 0.00212
m1 = 0.007157 | 0.00202
m1 = 0.00801 | 0.00196
m1 = 0.008612 | 0.00189

CCCC[N+](CCCC)(CCCC)CCCC.F[B-](F)(F)F [tetrabutylammonium tetrafluoroborate] + CNC=O
[2]
Conditions | molar conductivity [S·m2/mol]
m1 = 0.000795 | 0.00352
m1 = 0.001513 | 0.00331
m1 = 0.002025 | 0.00314
m1 = 0.002735 | 0.00299
m1 = 0.003295 | 0.00286
m1 = 0.003956 | 0.00275
m1 = 0.004802 | 0.00262
m1 = 0.005388 | 0.00253
m1 = 0.006053 | 0.0024
m1 = 0.007327 | 0.00223
m1 = 0.007832 | 0.00216
m1 = 0.008798 | 0.00204

CCCC[N+](CCCC)(CCCC)CCCC.F[B-](F)(F)F [tetrabutylammonium tetrafluoroborate] + C[N+](=O)[O-]
[2]
Conditions | molar conductivity [S·m2/mol]
m1 = 0.000773 | 0.00833
m1 = 0.001303 | 0.00794
m1 = 0.001731 | 0.00765
m1 = 0.002372 | 0.00735
m1 = 0.002927 | 0.00709
m1 = 0.003576 | 0.00684
m1 = 0.004134 | 0.0066
m1 = 0.004914 | 0.0064
m1 = 0.005655 | 0.00617
m1 = 0.006577 | 0.00594
m1 = 0.007569 | 0.00568
m1 = 0.008556 | 0.00543
